In patent publication US11957677B2, “Cancer treatment using FGFR inhibitors and PLK1 inhibitors” (Cardiff Oncology, Inc., priority 2021, dated 2024):

Key:
[1] = system: γ-H2AX; experiment: γ-H2AX by Western Blot; assay type: cell-based; conditions: NCI-H1703
[2] = system: γ-H2AX; experiment: γ-H2AX positive cells by flow cytometry; assay type: cell-based; conditions: NCI-H1703
Excerpt: To confirm the above observations, percentage of γ-H2AX positive cells was quantified using flow cytometry.

[3] = target: IGFR (Homo sapiens, UniProt P08069); conditions: cellular; read-out: IC50, cellular IGFR ligand-induced phosphorylation; cited from earlier work
Sequence of IGFR (P08069 31-1367): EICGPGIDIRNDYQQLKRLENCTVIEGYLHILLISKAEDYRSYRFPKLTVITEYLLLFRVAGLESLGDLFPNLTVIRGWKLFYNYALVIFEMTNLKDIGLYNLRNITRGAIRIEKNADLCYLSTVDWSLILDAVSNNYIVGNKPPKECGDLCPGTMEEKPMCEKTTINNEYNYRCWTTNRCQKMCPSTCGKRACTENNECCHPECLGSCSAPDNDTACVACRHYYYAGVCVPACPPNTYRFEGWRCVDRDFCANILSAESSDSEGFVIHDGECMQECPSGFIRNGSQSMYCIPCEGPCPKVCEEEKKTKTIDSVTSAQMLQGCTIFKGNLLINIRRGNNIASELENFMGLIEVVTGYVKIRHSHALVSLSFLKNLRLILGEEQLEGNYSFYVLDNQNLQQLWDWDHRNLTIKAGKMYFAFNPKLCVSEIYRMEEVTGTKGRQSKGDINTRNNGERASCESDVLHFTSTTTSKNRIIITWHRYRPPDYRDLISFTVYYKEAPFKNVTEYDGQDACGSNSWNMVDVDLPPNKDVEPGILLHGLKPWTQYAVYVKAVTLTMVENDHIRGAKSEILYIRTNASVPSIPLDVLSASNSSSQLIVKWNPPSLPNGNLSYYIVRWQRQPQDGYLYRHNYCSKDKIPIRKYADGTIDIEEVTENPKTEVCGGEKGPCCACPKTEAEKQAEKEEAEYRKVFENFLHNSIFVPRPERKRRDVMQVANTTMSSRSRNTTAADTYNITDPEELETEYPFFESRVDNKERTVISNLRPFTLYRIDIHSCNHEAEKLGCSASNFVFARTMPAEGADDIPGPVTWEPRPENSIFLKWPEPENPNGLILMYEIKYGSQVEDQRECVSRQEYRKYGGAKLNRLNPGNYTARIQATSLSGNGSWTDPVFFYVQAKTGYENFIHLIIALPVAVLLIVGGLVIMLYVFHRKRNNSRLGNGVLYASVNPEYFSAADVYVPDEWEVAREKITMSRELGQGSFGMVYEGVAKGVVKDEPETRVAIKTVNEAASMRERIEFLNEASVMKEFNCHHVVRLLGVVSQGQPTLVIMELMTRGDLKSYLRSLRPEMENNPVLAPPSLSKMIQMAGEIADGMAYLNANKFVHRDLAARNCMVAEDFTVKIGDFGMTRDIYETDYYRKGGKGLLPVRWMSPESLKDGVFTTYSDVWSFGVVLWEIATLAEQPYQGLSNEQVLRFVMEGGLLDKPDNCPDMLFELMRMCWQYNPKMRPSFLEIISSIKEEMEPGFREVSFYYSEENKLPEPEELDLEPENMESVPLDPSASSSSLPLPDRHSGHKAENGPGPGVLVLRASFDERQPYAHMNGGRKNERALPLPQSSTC

[4] = system: FGFR1-amplified lung cancer cells; conditions: in combination with FGFR inhibitors; cited from earlier work
[5] = system: NCI-H1703 cells; experiment: colony forming capacity, crystal violet staining; assay type: cell-based; conditions: onvansertib 50 nM, AZD4547 250 nM
Excerpt: The culture media was changed again after 3 days. After culturing for another 6 days, the NCI-H1703 cells were stained with crystal violet. The workflow of determining colony forming capacity is illustrated in FIG. 21. […] The colonies formed by NCI-H1703 cells shown in FIG. 22 were quantified as indicated by percentage relative intensity (FIG. 23).

[6] = target: PLK1 (Homo sapiens, UniProt P53350); conditions: among a panel of 296 kinases, including other PLK members; cited from earlier work
Sequence of PLK1 (P53350 whole entry): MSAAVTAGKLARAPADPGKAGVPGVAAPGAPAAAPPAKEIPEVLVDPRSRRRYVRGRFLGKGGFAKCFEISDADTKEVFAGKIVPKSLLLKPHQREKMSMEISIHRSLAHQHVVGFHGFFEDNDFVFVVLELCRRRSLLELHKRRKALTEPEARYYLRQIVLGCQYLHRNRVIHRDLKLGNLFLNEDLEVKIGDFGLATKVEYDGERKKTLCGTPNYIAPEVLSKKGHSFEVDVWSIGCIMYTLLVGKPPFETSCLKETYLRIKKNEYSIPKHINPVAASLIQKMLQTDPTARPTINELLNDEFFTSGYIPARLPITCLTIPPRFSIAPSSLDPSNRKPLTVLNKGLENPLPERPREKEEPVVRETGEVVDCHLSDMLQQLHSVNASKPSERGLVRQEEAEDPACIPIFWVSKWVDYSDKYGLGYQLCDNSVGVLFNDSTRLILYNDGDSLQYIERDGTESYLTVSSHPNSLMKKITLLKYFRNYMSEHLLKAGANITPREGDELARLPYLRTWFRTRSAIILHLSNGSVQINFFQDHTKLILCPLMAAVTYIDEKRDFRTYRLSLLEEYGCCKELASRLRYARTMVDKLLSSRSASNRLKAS

[7] = system: NPM at Threonine 199; experiment: phosphorylation of NPM at Threonine 199; assay type: cell-based; conditions: NCI-H1703; 6 hrs, 24 hrs and 48 hrs
[8] = system: NCI-H1703 cells; experiment: cell cycle analysis; assay type: cell-based; conditions: 48 hrs, onvansertib 50 nM, AZD4547 2.5 μM
Method: (§1) The percentage of pHH3 positive cells was also determined using flow cytometry at 24 h and 48 h.

[9] = system: cleaved caspase-3; experiment: cleaved-caspase-3 positive cells by flow cytometry; assay type: cell-based; conditions: NCI-H1703; 24 h and 48 h; onvansertib 50 nM, AZD4547 2.5 μM
[10] = system: cleaved caspase-3; experiment: cleaved caspase-3 by Western Blot; assay type: cell-based; conditions: NCI-H1703; 24 h and 48 h; onvansertib 50 nM, AZD4547 2.5 μM
Method: In addition, the amounts of cleaved caspase-3 and cleaved PARP were determined at 6 h, 24 h and 48 h after different treatments using Western Blot.

[11] = system: AML cell lines; conditions: cited from earlier work
[12] = patients, cited from earlier work
[13] = system: phosphorylated histone H3 (pHH3); experiment: pHH3 positive cells by flow cytometry; assay type: cell-based; conditions: NCI-H1703
Method: as §1

[14] = time point not given, compared to cells receiving no treatment
[15] = time point not given, compared to DMSO
[16] = 24 h and 48 h, onvansertib 50 nM, AZD4547 2.5 μM

Structure (SMILES)	amounts of γ-H2AX [1, 14]	percentage of γ-H2AX positive cells [2, 15]	IC50 [3] [µM]	antiproliferative effects and apoptosis [4]	colony-forming capacity [5]	specificity for PLK1 [6]	phosphorylation of NPM at Threonine 199 [7]	amounts of γ-H2AX [1, 16]	% of cells in G2 and/or mitotic stages [8]	percentage of cleaved-caspase-3 positive cells [9]	percentage of γ-H2AX positive cells [2, 16]	amount of cleaved caspase-3 [10]	inhibition of cell proliferation [11]	primary dose-limiting toxicities ([12]; phase I dose-escalation)	recovery of hematologic toxicities ([12]; reversible toxicities, phase I) [weeks]	percentage of pHH3 positive cells ([13]; 24 h)	percentage of pHH3 positive cells ([13]; 48 h)
COc1cc(CCc2cc(NC(=O)c3ccc(N4C[C@@H](C)N[C@@H](C)C4)cc3)n[nH]2)cc(OC)c1 [AZD4547, N-[5-[2-(3,5-Dimethoxyphenyl)ethyl]-2H-pyrazol-3-yl]-4-(3,5-diemthylpiperazin-1-yl)benzamide]	about the same	about the same	0.828														
CC[C@@H]1C(=O)N(C)c2cnc(Nc3ccc(C(=O)NC4CCN(C)CC4)cc3OC)nc2N1C1CCCC1 [BI2536]				synergistically enhances antiproliferative effects and apoptosis													
CN1CCN(c2ccc(OC(F)(F)F)c(Nc3ncc4c(n3)-c3c(c(C(N)=O)nn3CCO)CC4)c2)CC1 [onvansertib, 1-(2-hydroxyethyl)-8-{[5-(4-methylpiperazin-1-yl)-2-(trifluoromethoxy)phenyl]amino}-4,5-dihydro-1H-pyrazolo[4,3-h] quinazoline-3-carboxamide]	about the same	about the same			reduced the colony-forming capacity	high specificity	Increased phosphorylation of NPM	increased the γ-H2AX	increased the % of cells in G2 and/or mitotic stages	increased the percentage of cleaved-caspase-3 positive cells	increased the percentage of γ-H2AX positive cells	increased the cleaved caspase-3	inhibited cell proliferation at nanomolar concentrations	neutropenia and thrombocytopenia	≤ 3	increased the percentage of pHH3 positive cells	increased the percentage of pHH3 positive cells to a similar extent
